The source of these data is ChEMBL document CHEMBL3259703, “Synthesis and preliminary biological evaluation of 1,2,3-triazole-Jaspine B hybrids as potential cytotoxic agents” (Eur J Med Chem, 2014).

What all share (type): functional, cell-based
Test [1] in a line: Antiproliferative activity against human EC9706 cells after 48 hrs by MTT assay. The settings on record: EC9706, 48 h. (Tetrazolium dyes change colour on reduction, which living cells bring about.)
Another test has as its system MGC-803. Nature of the test: Antiproliferative activity against human MGC803 cells after 48 hrs by MTT assay. The settings on record: MGC-803, 48 h.
The test system of the next test is MCF7. In words: Antiproliferative activity against human MCF7 cells after 48 hrs by MTT assay. The settings on record: MCF7, 48 h.

The term IC50 denotes the concentration that inhibits the measured activity by half. Read a low IC50 as higher potency. `CCCCCCCn1cc(COC[C@@H]2OC[C@H](N)[C@@H]2O)nn1`: the IC50 (in test [1]; in the test with MGC-803; in the test with MCF7) was above 128 µM each time.
Consider `CCCCCCCCn1cc(COC[C@@H]2OC[C@H](N)[C@@H]2O)nn1`, for which the half-maximal inhibitory concentration (IC50) in test [1] is 44.3 µM; with MGC-803, 70.4 µM; in the test with MCF7, 28.1 µM.
Take `CCCCCCCCCn1cc(COC[C@@H]2OC[C@H](N)[C@@H]2O)nn1`: the values for the IC50 (in test [1]; with MGC-803; with MCF7) were 20.1 µM, 13.8 µM and 12.4 µM, respectively.
For the compound `CCCCCCCCCCn1cc(COC[C@@H]2OC[C@H](N)[C@@H]2O)nn1`, the IC50 in test [1] was determined as 15.6 µM; with MGC-803, 8.78 µM; in the test on MCF7, 9.64 µM.
`CCCCCCCCCCCCn1cc(COC[C@@H]2OC[C@H](N)[C@@H]2O)nn1`: the IC50 in test [1] worked out at 16 µM; in the test with MGC-803, 21.4 µM; in the test with MCF7 it was 2.21 µM.
As for `CCCCCCCCCCCCCCn1cc(COC[C@@H]2OC[C@H](N)[C@@H]2O)nn1`, the IC50 came out at 7.83 µM in test [1], 8.21 µM with MGC-803 and 1.85 µM with MCF7.
On to `CCCCCCCCCCCCCCCCn1cc(COC[C@@H]2OC[C@H](N)[C@@H]2O)nn1`, for which the IC50 in test [1] is 20 µM; with MGC-803 it was 27.9 µM; in the test on MCF7, 3.3 µM.
For the compound `CCCCCCCCCCCCCCCCCCn1cc(COC[C@@H]2OC[C@H](N)[C@@H]2O)nn1`, the IC50 is 17.8 µM in test [1], 15.4 µM in the test with MGC-803 and 7.58 µM in the test on MCF7.
In the case of `CCCCCCCn1cc(COC[C@@H]2OC[C@H](N)[C@H]2O)nn1`, the concentration for half-maximal inhibition (IC50) (in test [1]; in the test with MGC-803; with MCF7) was above 128 µM in each case.
As for `CCCCCCCCn1cc(COC[C@@H]2OC[C@H](N)[C@H]2O)nn1`, the IC50 (in test [1]; with MGC-803; with MCF7) was above 128 µM throughout.
Turning to `CCCCCCCCCn1cc(COC[C@@H]2OC[C@H](N)[C@H]2O)nn1`, the IC50 (in test [1]; in the test with MGC-803; with MCF7) was above 128 µM in each case.
As to `CCCCCCCCCCn1cc(COC[C@@H]2OC[C@H](N)[C@H]2O)nn1`, the IC50 in test [1] is 43.1 µM; with MGC-803 it was 57.4 µM; in the test with MCF7, 45 µM.
On to `CCCCCCCCCCCCn1cc(COC[C@@H]2OC[C@H](N)[C@H]2O)nn1`, for which the IC50 stood at 93.8 µM in test [1], 115 µM in the test on MGC-803 and 2.62 µM with MCF7.
For the compound `CCCCCCCCCCCCCCn1cc(COC[C@@H]2OC[C@H](N)[C@H]2O)nn1`, the IC50 in test [1] was found to be 6.68 µM; with MGC-803, 8.79 µM; in the test on MCF7, 2.45 µM.
On to `CCCCCCCCCCCCCCCCn1cc(COC[C@@H]2OC[C@H](N)[C@H]2O)nn1`, for which the IC50 is 6.31 µM in test [1], 5.34 µM with MGC-803 and 2.26 µM in the test with MCF7.
With `O=c1[nH]cc(F)c(=O)[nH]1` [FLUOROURACIL], the IC50 in test [1] was determined as 9.45 µM; in the test on MGC-803 it was 11.3 µM; in the test with MCF7, 3.52 µM.
The corresponding values for `CCCCCCCCCCCCCC[C@@H]1OC[C@H](N)[C@@H]1O` [PACHASTRISSAMINE] are 6.12 µM, 5.1 µM and 4.84 µM.
